# Values of other authors, collected in patent publication US20250270235A1, “COMPLEX OF GADOLINIUM AND A CHELATING LIGAND DERIVED OF A DIASTEREOISOMERICALLY ENRICHED PCTA AND SYNTHESIS METHOD” (GUERBET, priority 2019, published 2025).
# Assays:
# [1] = comparative, same conditions (pH 1.2, 37° C.); cited from earlier work
# [2] = as described in WO 2014/174120; comparative; cited from earlier work
SMILES,kinetic inertia [1] [days],"kinetic inertia (dissociation, in words) [1]",further results
CNC[C@H](O)[C@@H](O)[C@H](O)[C@H](O)CO.O=C([O-])CN1CCN(CC(=O)[O-])CCN(CC(=O)O)CCN(CC(=O)[O-])CC1.[Gd+3] [gadoterate],4,,
CNC(=O)CN(CCN(CCN(CC(=O)[O-])CC(=O)NC)CC(=O)[O-])CC(=O)[O-].[Gd+3] [gadodiamide],,dissociate instantaneously,
O=C([O-])CN(CCN(CC(=O)[O-])CC(=O)[O-])CCN(CC(=O)[O-])CC(=O)[O-].[Gd+3] [gadopentetate],,dissociate instantaneously,
O=C([O-])CN1CCN(CC(=O)[O-])CCN([C@H](CO)[C@H](O)CO)CCN(CC(=O)[O-])CC1.[Gd+3] (racemic) [gadobutrol],0.75,,
"O=C([O-])CN1CCN(CC(=O)[O-])CCN(CC(=O)O)CCN(CC(=O)[O-])CC1.[Gd+3] [DOTA-Gd, gadolinium complex of 1,4,7,10-tetraazacyclododecane-N,N′,N″,N′″-tetraacetic acid]",,,"log (Ktherm), stability constant [2]: 25.6"
